Test results as given in patent publication US8273542B2 (priority 2005, dated 2012).
Read-outs that look alike come from different tables or passages of the source.

Columns and labels:
hT2R54 [1] = biological target: T1, hT2R54 (Homo sapiens, UniProt P59534); assay type: cell-based
T1 construct: expressed in transfected cells; host or cells: HEK293 cells stably expressing large T antigen and G16gust44; Transfection was transient for imaging
T1 sequence (P59534 18-338): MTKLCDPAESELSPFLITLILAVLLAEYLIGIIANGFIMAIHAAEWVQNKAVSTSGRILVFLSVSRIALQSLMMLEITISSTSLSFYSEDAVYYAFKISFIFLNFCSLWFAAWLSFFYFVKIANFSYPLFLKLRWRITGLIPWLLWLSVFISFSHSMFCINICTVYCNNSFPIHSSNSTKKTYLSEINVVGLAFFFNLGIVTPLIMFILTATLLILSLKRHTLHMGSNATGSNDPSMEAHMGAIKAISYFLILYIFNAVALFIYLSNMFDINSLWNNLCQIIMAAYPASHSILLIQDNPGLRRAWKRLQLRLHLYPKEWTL
Protocol: (§1) More particularly, the present inventors transfected HEK293 cells with a particular hT2R together with a chimeric G protein (G16 gust 44) which comprises the […] G protein sequence modified by the replacement of carboxy-44 amino acid residues with those of gustducin, and recorded responses of these cells to specific bitter ligands by calcium imaging methods.
(§2) Activation of these receptors by ranitidine is measured in a cell-based assay detecting changes in intracellular calcium concentration. In brief, human embryonic kidney cells stably expressing the large […] and a chimeric G protein (G16gust44) are transiently transfected with the a plasmid containing a particular hT2R54 nucleic acid sequence either by Ca^2+ phosphate or lipid-based systems. Transiently transfected cells are seeded into 24 well culture plates, and functional expression allowed to proceed for a total of 48 hours. The cells are then incubated with a fluorescent dye specific for calcium (Fluo-4 or Fura-2; Molecular Probes) that provides a fast, simple and reliable fluorescence-based method for detecting changes in calcium concentration inside the cell. Addition of ranitidine to cells elicits a signaling cascade leading to the activation of PLC and a subsequent increase in intracellular calcium concentration. This increase in calcium concentration changes the fluorescence properties of the calcium dye inside the cells. These changes are monitored using fluorescence microscopy and a specific design software (Imaging Workbench, Axon).
(§3) Transiently transfected cells are seeded into 24 well culture plates, and functional expression allowed to proceed for a total of 48 hours. The cells are then incubated with a fluorescent dye specific for calcium (Fluo-4 or Fura-2; Molecular Probes) that provides a fast, simple and reliable fluorescence-based method for detecting changes in calcium concentration inside the cell. […] This increase in calcium concentration changes the fluorescence properties of the calcium dye inside the cells. These changes are monitored using fluorescence microscopy and specific design software (Imaging Workbench, Axon).
as §3, with “Activation of these receptors by denatonium benzoate is measured in” for “Transiently transfected cells are seeded into 24 well culture plates, and functional expression allowed to proceed for”, “cell-based assay detecting changes in intracellular calcium concentration. […]” for “total of 48 hours.”

mT2R5 = biological target: T2, mT2R5 (Mus musculus, UniProt Q9JKT4); conditions: Chandrashekar et al. 2000; cited from earlier work
T2 construct: host or cells: insect Sf9 cells
T2 sequence (Q9JKT4 1-300): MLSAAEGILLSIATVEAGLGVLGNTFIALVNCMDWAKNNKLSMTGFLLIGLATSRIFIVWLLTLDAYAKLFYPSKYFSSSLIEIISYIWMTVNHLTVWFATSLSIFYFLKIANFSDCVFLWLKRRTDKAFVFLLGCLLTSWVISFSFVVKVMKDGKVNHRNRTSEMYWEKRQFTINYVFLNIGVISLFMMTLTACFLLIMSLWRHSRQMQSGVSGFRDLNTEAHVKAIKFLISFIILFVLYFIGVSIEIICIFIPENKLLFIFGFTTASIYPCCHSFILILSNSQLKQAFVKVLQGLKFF

[2] = taste detection threshold; assay type: in vivo, humans
hT2R54 [3] = biological target: T1, hT2R54; test: dose response, stable HEK-G16gust44 line, calcium dye, FLIPR or VIPR; assay type: cell-based; conditions: for dose response of hT2R54: stable HEK-G16gust44 line
Protocol: (§4) A HEK-G16gust44 line stably expressing high levels of hT2R8 or hT2R54 on its cell surface is used in high throughput screening assays. In this platform, the cells are seeded into 96 well or 384 well culture plates 18-24 hours before the assay. The cells are then incubated with the fluorescent calcium sensitive dye (Molecular Devices) and are stimulated and read in a standard fluorescence intensity plate reader (FLIPR or VIPR). Using this approach we have been able to further characterize the ranitidine effect on hT2R8 and hT2R54.
as §4, with “HEK-G16gust44 cell” for “HEK-G16gust44”, “of” for “of hT2R8 or”, “acetaminophen” for “ranitidine”, “on” for “on hT2R8 and”

hT2R75 = biological target: T3, hT2R75 (Homo sapiens, UniProt P59540); assay type: cell-based
T3 construct: expressed in transfected cells; host or cells: HEK293 cells stably expressing large T antigen and G16gust44, transiently transfected
T3 sequence (P59540 1-309): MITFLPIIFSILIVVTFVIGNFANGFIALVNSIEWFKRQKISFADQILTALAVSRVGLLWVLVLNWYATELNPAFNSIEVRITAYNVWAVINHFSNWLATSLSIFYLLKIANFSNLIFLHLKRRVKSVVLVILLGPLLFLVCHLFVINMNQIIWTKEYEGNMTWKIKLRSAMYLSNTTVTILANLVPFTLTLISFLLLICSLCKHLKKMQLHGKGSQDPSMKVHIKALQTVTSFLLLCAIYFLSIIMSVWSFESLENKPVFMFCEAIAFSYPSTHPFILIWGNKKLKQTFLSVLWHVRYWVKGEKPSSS
Protocol: as §1, §2
as §3, with “Activation of these receptors by denatonium benzoate is measured in” for “Transiently transfected cells are seeded into 24 well culture plates, and functional expression allowed to proceed for”, “cell-based assay detecting changes in intracellular calcium concentration. […]” for “total of 48 hours.”
(§5) Activation of these receptors by strychnine is measured in a cell-based assay detecting changes in intracellular calcium concentration. […] The cells are then incubated with a fluorescent dye specific for calcium (Fluo-4 or Fura-2; Molecular Probes) that provides a fast, simple and reliable fluorescence-based method for detecting changes in calcium concentration inside the cell. […] This increase in calcium concentration changes the fluorescence properties of the calcium dye inside the cells. These changes are monitored using fluorescence microscopy and a specific design software (Imaging Workbench, Axon).

hT2R8 [4] = biological target: T4, hT2R8 (Homo sapiens, UniProt Q9NYW2); assay type: cell-based
T4 construct: expressed in transfected cells; host or cells: HEK293 cells stably expressing large T antigen and chimeric G protein G16gust44; Transfection was transient for imaging
T4 sequence (Q9NYW2 1-309): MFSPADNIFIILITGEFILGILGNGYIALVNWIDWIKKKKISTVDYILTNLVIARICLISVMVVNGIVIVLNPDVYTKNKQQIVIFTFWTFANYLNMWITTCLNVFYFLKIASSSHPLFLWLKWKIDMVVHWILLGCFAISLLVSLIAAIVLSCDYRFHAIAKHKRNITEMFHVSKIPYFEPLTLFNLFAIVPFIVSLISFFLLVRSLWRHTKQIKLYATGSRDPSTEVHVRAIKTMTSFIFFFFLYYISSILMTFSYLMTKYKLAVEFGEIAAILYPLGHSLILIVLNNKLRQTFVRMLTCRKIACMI
Protocol: as §1, §2
as §5, with “denatonium benzoate” for “strychnine”, “and” for “and a”
as §5

hT2R61 = biological target: T5, hT2R61 (Homo sapiens, UniProt P59537, H212R/W35S); assay type: cell-based; conditions: concentration not given
T5 construct: expressed in transfected cells; host or cells: HEK293 cells stably expressing large T antigen and G16gust44, transiently transfected
T5 sequence (P59537 1-309 W35S/H212R): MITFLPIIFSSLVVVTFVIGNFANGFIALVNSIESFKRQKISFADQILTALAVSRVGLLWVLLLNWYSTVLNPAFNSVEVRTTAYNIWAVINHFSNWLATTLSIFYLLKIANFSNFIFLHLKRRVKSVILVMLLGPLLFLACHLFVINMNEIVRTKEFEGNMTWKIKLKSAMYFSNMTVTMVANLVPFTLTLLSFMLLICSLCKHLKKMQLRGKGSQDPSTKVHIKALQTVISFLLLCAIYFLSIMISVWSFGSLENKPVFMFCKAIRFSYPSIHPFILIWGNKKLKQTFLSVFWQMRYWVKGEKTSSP
Protocol: as §1
as §2, with “receptors by denatonium benzoate is measured” for “receptors by ranitidine is measured”, “a particular hT2R nucleic acid” for “a particular hT2R54 nucleic acid”, “the cell. […] This increase” for “the cell. Addition of ranitidine to cells elicits a signaling cascade leading to the activation of PLC and a subsequent increase in intracellular calcium concentration. This increase”, “microscopy and specific design” for “microscopy and a specific design”

hT2R13 = biological target: T6, hT2R13 (Homo sapiens, UniProt Q9NYV9); assay type: cell-based; conditions: concentration not given
T6 construct: expressed in transfected cells; host or cells: HEK293 cells stably expressing large T antigen and G16gust44, transiently transfected
T6 sequence (Q9NYV9 1-303): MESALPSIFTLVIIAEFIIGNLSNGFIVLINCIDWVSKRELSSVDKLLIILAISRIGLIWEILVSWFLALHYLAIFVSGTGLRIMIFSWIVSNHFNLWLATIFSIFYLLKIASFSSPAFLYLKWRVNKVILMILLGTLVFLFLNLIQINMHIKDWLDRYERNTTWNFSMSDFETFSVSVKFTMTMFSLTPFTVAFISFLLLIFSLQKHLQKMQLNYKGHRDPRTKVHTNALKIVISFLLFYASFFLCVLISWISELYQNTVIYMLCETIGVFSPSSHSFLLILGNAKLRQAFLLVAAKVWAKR
Protocol: as §1
as §2, with “receptors by denatonium benzoate is measured” for “receptors by ranitidine is measured”, “a particular hT2R nucleic acid” for “a particular hT2R54 nucleic acid”, “the cell. […] This increase” for “the cell. Addition of ranitidine to cells elicits a signaling cascade leading to the activation of PLC and a subsequent increase in intracellular calcium concentration. This increase”, “microscopy and specific design” for “microscopy and a specific design”

hT2R10 = biological target: T7, hT2R10 (Homo sapiens, UniProt Q9NYW0); assay type: cell-based; conditions: concentration not given
T7 construct: expressed in transfected cells; host or cells: HEK293 cells stably expressing large T antigen and G16gust44, transiently transfected
T7 sequence (Q9NYW0 1-307): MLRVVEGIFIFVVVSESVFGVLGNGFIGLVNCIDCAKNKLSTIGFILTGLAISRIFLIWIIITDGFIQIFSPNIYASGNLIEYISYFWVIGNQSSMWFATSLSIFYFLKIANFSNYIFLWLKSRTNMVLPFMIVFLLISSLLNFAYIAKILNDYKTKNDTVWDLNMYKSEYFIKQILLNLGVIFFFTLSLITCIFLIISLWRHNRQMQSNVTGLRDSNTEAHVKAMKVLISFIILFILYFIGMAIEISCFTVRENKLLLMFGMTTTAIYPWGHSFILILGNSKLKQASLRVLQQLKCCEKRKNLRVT
Protocol: as §1
as §5, with “denatonium benzoate” for “strychnine”, “and” for “and a”
Activation of these receptors by strychnine is measured in a cell-based assay detecting changes in intracellular calcium concentration. […] The cells are then incubated with a fluorescent dye specific for calcium (Fluo-4 or Fura-2; Molecular Probes) that provides a fast, simple and reliable fluorescence-based method for detecting changes in calcium concentration inside the cell. […]

hT2R8 [5] = biological target: T4, hT2R8; test: dose response, stable HEK-G16gust44 line, calcium dye, FLIPR or VIPR; assay type: cell-based
Protocol: as §4
as §4, with “[…]” for “or hT2R54”, “VIPR).” for “VIPR). Using this approach we have been able to further characterize the ranitidine effect on hT2R8 and hT2R54.”

hT2R4 = biological target: T8, hT2R4 (Homo sapiens, UniProt Q9NYW5); conditions: Chandrashekar et al. 2000; cited from earlier work
T8 sequence (Q9NYW5 1-299): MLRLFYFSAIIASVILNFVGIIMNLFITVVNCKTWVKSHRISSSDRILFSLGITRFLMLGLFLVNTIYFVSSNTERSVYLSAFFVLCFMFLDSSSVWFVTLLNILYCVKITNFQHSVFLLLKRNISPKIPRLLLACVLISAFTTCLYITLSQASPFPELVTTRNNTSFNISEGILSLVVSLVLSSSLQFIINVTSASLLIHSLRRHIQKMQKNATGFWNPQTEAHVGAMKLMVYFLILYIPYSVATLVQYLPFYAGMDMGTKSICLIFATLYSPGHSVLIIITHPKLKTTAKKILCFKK

OCc1ccccc1O[C@@H]1O[C@H](CO)[C@@H](O)[C@H](O)[C@H]1O [salicin]
response of hT2R54 in calcium imaging (hT2R54 [1]; 10 μM): does not respond

C[C@@H]1C[C@@H]([C@H](O)CC2CC(=O)NC(=O)C2)C(=O)[C@@H](C)C1 [cycloheximide]
gustducin activation by mT2R5 (mT2R5): occurs only in response to cycloheximide

CNC(=C[N+](=O)[O-])NCCSCc1ccc(CN(C)C)o1 [ranitidine]
taste detection threshold / bitter taste threshold for humans [2]: 78 µM

CC(=O)Nc1ccc(O)cc1 [acetaminophen]
taste detection threshold / bitter taste threshold for humans [2]: 1.25 µM | response of hT2R54 in calcium imaging (hT2R54 [1]; 10 μM): responded specifically | EC50 (hT2R54 [3]): 1830 nM | dose response of hT2R54 (hT2R54 [3]): typical dose-response relationship

OC[C@H]1O[C@@](CO)(O[C@H]2O[C@H](CO)[C@@H](O)[C@H](O)[C@H]2O)[C@@H](O)[C@@H]1O [sucrose]
response of hT2R54 in calcium imaging (hT2R54 [1]; 10 μM): did not respond | response of hT2R75 in calcium imaging (hT2R75; 10 μM): did not respond | response of hT2R8 in calcium imaging (hT2R8 [4]; 10 μM): did not respond

CC[N+](CC)(CC(=O)Nc1c(C)cccc1C)Cc1ccccc1 [denatonium benzoate]
taste detection threshold ([2]; in vivo): 24 mM | response of hT2R61 in calcium imaging (hT2R61): respond specifically | response of hT2R13 in calcium imaging (hT2R13): respond specifically | response of hT2R54 in calcium imaging (hT2R54 [1]; concentration not given): respond specifically | response of hT2R10 in calcium imaging (hT2R10): respond specifically | response of hT2R75 in calcium imaging (hT2R75; concentration not given): respond specifically | response of hT2R8 in calcium imaging (hT2R8 [4]; concentration not given): respond specifically | EC50 (hT2R54 [3]; dose response, FIG. 4, read-out: EC50, hT2R54): 380 nM | dose response of hT2R54 (hT2R54 [3]): typical dose-response relationship | EC50 (hT2R8 [5]; dose response, FIG. 6): 450000 nM | dose response of hT2R8 (hT2R8 [5]; stable HEK-G16gust44 line): typical dose-response relationship | effective denatonium concentrations activating hT2R4 (hT2R4): 1.5 mM
